Experimental data from US20180265515A1 (Genentech, Inc., priority 2015, published 2018).

Tests used:
[1] = molecular target: T1, isolated recombinant JAK1 kinase domain (Homo sapiens, UniProt P23458); test: JAK1 enzyme assay (Caliper LabChip, Ki); format: biochemical; conditions: recombinant JAK1 kinase domain, 25 μM ATP
T1 construct: The activity of the isolated recombinant JAK1 and JAK2 kinase domain was measured
In short: (§1)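 Ki values fitted with Morrison tight-binding equation adjusted for ATP-competitive inhibition, using product-to-total peptide ratio read by Caliper LabChip. Reactions: isolated JAK1 or JAK2 kinase domain with N-terminal 5-carboxyfluorescein JAK3-derived peptide, 22° C for 30 min, quenched by EDTA.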

[2] = tested on: JAK1-dependent STAT6 phosphorylation downstream of IL-13 stimulation in BEAS-2B human bronchial epithelial cells; test: JAK1 pathway assay in BEAS-2B cells (IL-13 stimulated STAT6 phosphorylation, MSD); format: cell-based; conditions: read-out: P-STAT6 BEAS2B + IL13 IC50
In short: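 BEAS-2B human bronchial epithelial cells, plated the day before in complete growth medium, were preincubated with compound for 1 hr at 37° C (0.2% DMSO final), then stimulated with IL-13 at its EC90 for 15 min. STAT6 phosphorylation in lysates was read by MSD; EC50 was taken as 50% inhibition versus DMSO control.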

[3] = molecular target: T2, isolated recombinant JAK2 kinase domain (Homo sapiens, UniProt O60674); test: JAK2 enzyme assay (Caliper LabChip, Ki); format: biochemical; conditions: 25 μM ATP
T2 construct: The activity of the isolated recombinant JAK1 and JAK2 kinase domain was measured
In short: as §1

T2 sequence (O60674 849-1124 limits assumed): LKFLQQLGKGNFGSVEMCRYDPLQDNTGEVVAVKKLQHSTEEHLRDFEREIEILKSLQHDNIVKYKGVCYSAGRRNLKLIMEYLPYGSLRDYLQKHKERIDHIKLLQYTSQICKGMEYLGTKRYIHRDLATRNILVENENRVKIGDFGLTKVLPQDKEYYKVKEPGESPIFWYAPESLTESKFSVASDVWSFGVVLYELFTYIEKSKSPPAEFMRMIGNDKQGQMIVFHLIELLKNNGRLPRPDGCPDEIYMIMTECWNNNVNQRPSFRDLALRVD
T1 sequence (P23458 875-1153 limits assumed): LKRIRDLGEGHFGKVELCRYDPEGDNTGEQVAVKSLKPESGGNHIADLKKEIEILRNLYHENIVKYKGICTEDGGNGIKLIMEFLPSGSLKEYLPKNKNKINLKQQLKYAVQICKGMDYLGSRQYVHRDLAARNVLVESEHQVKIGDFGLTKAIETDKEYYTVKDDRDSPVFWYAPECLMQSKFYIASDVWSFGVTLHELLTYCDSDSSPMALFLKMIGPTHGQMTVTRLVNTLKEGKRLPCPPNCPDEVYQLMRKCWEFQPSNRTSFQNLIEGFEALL

CSc1ccc(OC(F)F)c(-c2nn(CC(=O)N3CCC(N4CCOC[C@H]4C)CC3)cc2NC(=O)c2cnn3cccnc23)c1 [Example 57, N-[3-[2-(difluoromethoxy)-5-methylsulfanyl-phenyl]-1-[2-[4-[(3R)-3-methylmorpholin-4-yl]-1-piperidyl]-2-oxo-ethyl]pyrazol-4-yl]pyrazolo[1,5-a]pyrimidine-3-carboxamide]
Ki [1]: 0.26 nM
IC50 [2]: 18 nM
Ki [3]: 0.43 nM

CSc1ccc(OC(F)F)c(-c2nn(CC(=O)N3CCC(N(C)CC4(C#N)CC4)CC3)cc2NC(=O)c2cnn3cccnc23)c1 [Example 42, N-[1-[2-[4-[(1-cyanocyclopropyl)methyl-methyl-amino]-1-piperidyl]-2-oxo-ethyl]-3-[2-(difluoromethoxy)-5-methylsulfanyl-phenyl]pyrazol-4-yl]pyrazolo[1,5-a]pyrimidine-3-carboxamide]
Ki [1]: 0.17 nM
IC50 [2]: 13 nM
Ki [3]: 0.26 nM

O=C(Nc1cn(CC(=O)N2CCN(C3CCOCC3)CC2)nc1-c1cc(SC2COC2)ccc1OC(F)F)c1cnn2cccnc12 [Example 184, N-[3-[2-(difluoromethoxy)-5-(oxetan-3-ylsulfanyl)phenyl]-1-[2-oxo-2-(4-tetrahydropyran-4-ylpiperazin-1-yl)ethyl]pyrazol-4-yl]pyrazolo[1,5-a]pyrimidine-3-carboxamide]
Ki [1]: 0.56 nM
IC50 [2]: 74 nM
Ki [3]: 1.1 nM

CC(C)Sc1ccc(OC(F)F)c(-c2nn(CC(=O)N3CCN(CCN4CCOCC4)CC3)cc2NC(=O)c2cnn3cccnc23)c1 [Example 109, N-[3-[2-(difluoromethoxy)-5-isopropylsulfanyl-phenyl]-1-[2-[4-(2-morpholinoethyl)piperazin-1-yl]-2-oxo-ethyl]pyrazol-4-yl]pyrazolo[1,5-a]pyrimidine-3-carboxamide]
Ki [1]: 0.41 nM
IC50 [2]: 33 nM
Ki [3]: 0.78 nM

CC(C)(C#N)CNC1CCN(C(=O)Cn2cc(NC(=O)c3cnn4cccnc34)c(-c3cc(SC4COC4)ccc3OC(F)F)n2)CC1 [Example 186, N-[1-[2-[4-[(2-cyano-2-methyl-propyl)amino]-1-piperidyl]-2-oxo-ethyl]-3-[2-(difluoromethoxy)-5-(oxetan-3-ylsulfanyl)phenyl]pyrazol-4-yl]pyrazolo[1,5-a]pyrimidine-3-carboxamide]
Ki [1]: 0.65 nM
IC50 [2]: 90 nM
Ki [3]: 1.8 nM

CC(C)Sc1ccc(OC(F)F)c(-c2nn(CC(=O)N3CCC(C(=O)N4CCN(C)CC4)CC3)cc2NC(=O)c2cnn3cccnc23)c1 [Example 137, N-[3-[2-(difluoromethoxy)-5-isopropylsulfanyl-phenyl]-1-[2-[4-(4-methylpiperazine-1-carbonyl)-1-piperidyl]-2-oxo-ethyl]pyrazol-4-yl]pyrazolo[1,5-a]pyrimidine-3-carboxamide]
Ki [1]: 0.5 nM
IC50 [2]: 66 nM
Ki [3]: 1.5 nM

COCC(=O)N1CCN(CC2CCN(C(=O)Cn3cc(NC(=O)c4cnn5cccnc45)c(-c4cc(SC)ccc4OC(F)F)n3)CC2)CC1 [Example 82, N-[3-[2-(difluoromethoxy)-5-methylsulfanyl-phenyl]-1-[2-[4-[[4-(2-methoxyacetyl)piperazin-1-yl]methyl]-1-piperidyl]-2-oxo-ethyl]pyrazol-4-yl]pyrazolo[1,5-a]pyrimidine-3-carboxamide]
Ki [1]: 0.29 nM
IC50 [2]: 34 nM
Ki [3]: 0.41 nM

CC(C)Sc1ccc(OC(F)F)c(-c2nn(CC(=O)N3CCC(N4CCOC[C@H]4CO)CC3)cc2NC(=O)c2cnn3cccnc23)c1 [Example 153]
Ki [1]: 0.41 nM
IC50 [2]: 110 nM
Ki [3]: 0.91 nM

CSc1ccc(OC(F)F)c(-c2nn(CC(=O)N3CCC(N4CCOCC4)CC3)cc2NC(=O)c2cnn3cccnc23)c1 [Example 5, N-(3-(2-(difluoromethoxy)-5-(methylthio)phenyl)-1-(2-(4-morpholinopiperidin-1-yl)-2-oxoethyl)-1H-pyrazol-4-yl)pyrazolo[1,5-a]pyrimidine-3-carboxamide]
Ki [1]: 0.29 nM
IC50 [2]: 15 nM
Ki [3]: 0.4 nM

O=C(Nc1cn(CC(=O)N2CCN(CC3CCOCC3)CC2)nc1-c1cc(SC2COC2)ccc1OC(F)F)c1cnn2cccnc12 [Example 188, N-[3-[2-(difluoromethoxy)-5-(oxetan-3-ylsulfanyl)phenyl]-1-[2-oxo-2-[4-(tetrahydropyran-4-ylmethyl)piperazin-1-yl]ethyl]pyrazol-4-yl]pyrazolo[1,5-a]pyrimidine-3-carboxamide]
Ki [1]: 0.62 nM
IC50 [2]: 48 nM
Ki [3]: 1.3 nM

CSc1ccc(OC(F)F)c(-c2nn(CC(=O)N3CCC(N(C)CC4(C)OCCO4)CC3)cc2NC(=O)c2cnn3cccnc23)c1 [Example 51, N-[3-[2-(difluoromethoxy)-5-methylsulfanyl-phenyl]-1-[2-[4-[methyl-[(2-methyl-1,3-dioxolan-2-yl)methyl]amino]-1-piperidyl]-2-oxo-ethyl]pyrazol-4-yl]pyrazolo[1,5-a]pyrimidine-3-carboxamide]
Ki [1]: 0.43 nM
IC50 [2]: 26 nM
Ki [3]: 0.97 nM

CC(C)Sc1ccc(OC(F)F)c(-c2nn(Cc3cn(C4CCN(C5COC5)CC4)nn3)cc2NC(=O)c2cnn3cccnc23)c1 [Example 148, N-[3-[2-(difluoromethoxy)-5-isopropylsulfanyl-phenyl]-1-[[1-[1-(oxetan-3-yl)-4-piperidyl]triazol-4-yl]methyl]pyrazol-4-yl]pyrazolo[1,5-a]pyrimidine-3-carboxamide]
Ki [1]: 0.4 nM
IC50 [2]: 55 nM
Ki [3]: 0.24 nM

CNCCn1cc(NC(=O)c2cnn3cccnc23)c(-c2cc(SC)ccc2OC(F)F)n1 [Example 28, N-[3-[2-(difluoromethoxy)-5-methylsulfanyl-phenyl]-1-[2-(methylamino)ethyl]pyrazol-4-yl]pyrazolo[1,5-a]pyrimidine-3-carboxamide]
Ki [1]: 0.22 nM
IC50 [2]: 3 nM
Ki [3]: 0.26 nM

CNCCn1cc(NC(=O)c2cnn3cccnc23)c(-c2cc(SC3COC3)ccc2OC(F)F)n1 [Example 178, N-[3-[2-(difluoromethoxy)-5-(oxetan-3-ylsulfanyl)phenyl]-1-[2-(methylamino)ethyl]pyrazol-4-yl]pyrazolo[1,5-a]pyrimidine-3-carboxamide]
Ki [1]: 0.36 nM
IC50 [2]: 9 nM
Ki [3]: 0.64 nM

O=C(Nc1c[nH]nc1-c1cc(SC2COC2)ccc1OC(F)F)c1cnn2cccnc12 [Example 175, N-[3-[2-(difluoromethoxy)-5-(oxetan-3-ylsulfanyl)phenyl]-1H-pyrazol-4-yl]pyrazolo[1,5-a]pyrimidine-3-carboxamide]
Ki [1]: 0.23 nM
IC50 [2]: 9.5 nM
Ki [3]: 0.11 nM

CSc1ccc(OC(F)F)c(-c2nn(CC(=O)N3CCC(N4CCSCC4)CC3)cc2NC(=O)c2cnn3cccnc23)c1 [Example 27, N-[3-[2-(difluoromethoxy)-5-methylsulfanyl-phenyl]-1-[2-oxo-2-(4-thiomorpholino-1-piperidyl)ethyl]pyrazol-4-yl]pyrazolo[1,5-a]pyrimidine-3-carboxamide]
Ki [1]: 0.23 nM
IC50 [2]: 5.1 nM
Ki [3]: 0.32 nM

CC(C)Sc1ccc(OC(F)F)c(-c2nn(CC(=O)N3CCC(N4CCOC[C@@H]4CO)CC3)cc2NC(=O)c2cnn3cccnc23)c1 [Example 158, N-[3-[2-(difluoromethoxy)-5-isopropylsulfanyl-phenyl]-1-[2-[4-[(3S)-3-(hydroxymethyl)morpholin-4-yl]-1-piperidyl]-2-oxo-ethyl]pyrazol-4-yl]pyrazolo[1,5-a]pyrimidine-3-carboxamide]
Ki [1]: 0.59 nM
IC50 [2]: 91 nM
Ki [3]: 1 nM

CSc1ccc(OC(F)F)c(-c2nn(CC(=O)N3CCC(N4CCn5cncc5C4)CC3)cc2NC(=O)c2cnn3cccnc23)c1 [Example 72, N-[3-[2-(difluoromethoxy)-5-methylsulfanyl-phenyl]-1-[2-[4-(6,8-dihydro-5H-imidazo[1,5-a]pyrazin-7-yl)-1-piperidyl]-2-oxo-ethyl]pyrazol-4-yl]pyrazolo[1,5-a]pyrimidine-3-carboxamide]
Ki [1]: 0.4 nM
IC50 [2]: 110 nM
Ki [3]: 0.36 nM

CSc1ccc(OC(F)F)c(-c2nn(CC(=O)N3CCC(CN4CCN(C(C)=O)CC4)CC3)cc2NC(=O)c2cnn3cccnc23)c1 [Example 80, N-[1-[2-[4-[(4-acetylpiperazin-1-yl)methyl]-1-piperidyl]-2-oxo-ethy]-3-[2-(difluoromethoxy)-5-methylsulfanyl-phenyl]pyrazol-4-yl]pyrazolo[1,5-a]pyrimidine-3-carboxamide]
Ki [1]: 0.26 nM
IC50 [2]: 16 nM
Ki [3]: 0.43 nM

CC(C)Sc1ccc(OC(F)F)c(-c2nn(Cc3cn(C4CCN(C5CCOC5)CC4)nn3)cc2NC(=O)c2cnn3cccnc23)c1 (stereo not drawn) [Example 156, N-[3-[2-(difluoromethoxy)-5-(propan-2-ylsulfanyl)phenyl]-1-([1-[1-(oxolan-3-yl)piperidin-4-yl]-1H-1,2,3-triazol-4-yl]methyl)-1H-pyrazol-4-yl]pyrazolo[1,5-a]pyrimidine-3-carboxamide]
Ki [1]: 0.36 nM
IC50 [2]: 21 nM
Ki [3]: 0.29 nM

O=C(Nc1cn(CC(=O)N2CCN(CCN3CCOCC3)CC2)nc1-c1cc(SC2CC2)ccc1OC(F)F)c1cnn2cccnc12 [Example 163, N-[3-[5-(cyclopropylsulfanyl)-2-(difluoromethoxy)phenyl]-1-(2-[4-[2-(morpholin-4-yl)ethyl]piperazin-1-yl]-2-oxoethyl)-1H-pyrazol-4-yl]pyrazolo[1,5-a]pyrimidine-3-carboxamide]
Ki [1]: 0.43 nM
IC50 [2]: 24 nM
Ki [3]: 0.94 nM
